Patent US20210227843A1, “A TEMPERING COMPOSITION FOR TEMPERING GRAIN AND CONTROLLING PATHOGENS IN AND/OR ON SAID GRAIN, AN OXIDIZING COMPOSITION FOR PREPARING SAID TEMPERING COMPOSITION, A USE OF SAID TEMPERING COMPOSITION AND A METHOD OF USE OF SAID TEMPERING COMPOSITION” (AGRI-NEO INC., priority 2017, published 2021)

Experiment: Flour functionality, sensory and physical characteristics after tempering wheat in an organic flour mill (Example 1)
Conditions: 2 L per ton of wheat (citric acid 2 Kg); 16 h hold

Row | SMILES | MIXOLAB Stability [min]
1 | O=C(O)CC(O)(CC(=O)O)C(=O)O [Citric acid] | 13.5
2 | CC(O)C(=O)O (centres unmarked) [Lactic acid] | 17.5
